Drawing on ChEMBL document CHEMBL1240419, “Synthesis and antibacterial activity of 3-O-carbamoyl derivatives of 6,11-di-O-methylerythromycin A: a novel class of acylides” (2010), this text covers MIC for eight molecules.

Format in all cases: functional
For experiment [1], the system named is Staphylococcus aureus. The experiment can be described thus: Antibacterial activity against erythromycin-susceptible Staphylococcus aureus ATCC 25923 by broth microdilution method. On the technique in general: Dilution methods test growth across graded concentrations, often in twofold steps.
In experiment [2] the test system is Haemophilus influenzae. The experiment can be described thus: Antibacterial activity against ampicillin-susceptible Haemophilus influenzae ATCC 49247 by broth microdilution method.
The test system of experiment [3] is Streptococcus pneumoniae. The experiment can be described thus: Antibacterial activity against erythromycin-resistant Streptococcus pneumoniae 3469 by broth microdilution method.
The test system of experiment [4] is Staphylococcus aureus. The experiment can be described thus: Antibacterial activity against erythromycin, methicillin-resistant Staphylococcus aureus A333 by broth microdilution method.
Experiment [5] concerns Staphylococcus aureus. The experiment can be described thus: Antibacterial activity against erythromycin-resistant, methicillin-susceptible Staphylococcus aureus A265 by broth microdilution method.
The test system of experiment [6] is Haemophilus influenzae. The experiment can be described thus: Antibacterial activity against ampicillin-resistant Haemophilus influenzae 3300 by broth microdilution method.
Experiment [7] has as its system Streptococcus pneumoniae. In words: Antibacterial activity against erythromycin-susceptible Streptococcus pneumoniae ATCC 49619 by broth microdilution method.

Values after ≈ are worked out from the molar mass of the structure shown.

Regarding `CC[C@H]1OC(=O)[C@H](C)[C@@H](OC(=O)NCCc2ccc(OC)cc2)[C@H](C)[C@@H](O[C@@H]2O[C@H](C)C[C@H](N(C)C)[C@H]2O)[C@](C)(OC)C[C@@H](C)C(=O)[C@@H](C)[C@@H](OC)[C@]1(C)O`, the MIC was 4 µg/mL (≈ 5.12 µM) against Staphylococcus aureus [1]; 16 µg/mL (≈ 20.5 µM) with Haemophilus influenzae [2]; 0.125 µg/mL (≈ 0.16 µM) in the experiment with Streptococcus pneumoniae [3]; > 64 µg/mL against Staphylococcus aureus [4]; 8 µg/mL (≈ 10.2 µM) in the experiment on Staphylococcus aureus [5]; 16 µg/mL (≈ 20.5 µM) in the experiment on Haemophilus influenzae [6]. In the experiment with Streptococcus pneumoniae [7], this molecule gave an MIC of 0.125 µg/mL (≈ 0.16 µM).
Regarding `CC[C@H]1OC(=O)[C@H](C)[C@@H](OC(=O)NCCc2ccc(OC)c(OC)c2)[C@H](C)[C@@H](O[C@@H]2O[C@H](C)C[C@H](N(C)C)[C@H]2O)[C@](C)(OC)C[C@@H](C)C(=O)[C@@H](C)[C@@H](OC)[C@]1(C)O`, the MIC in the experiment with Staphylococcus aureus [1] was 2 µg/mL (≈ 2.47 µM); against Haemophilus influenzae [2], 32 µg/mL (≈ 39.5 µM); against Streptococcus pneumoniae [3], 0.25 µg/mL (≈ 0.308 µM); in the experiment with Staphylococcus aureus [4], > 64 µg/mL; against Staphylococcus aureus [5], 8 µg/mL (≈ 9.86 µM); against Haemophilus influenzae [6] it was 32 µg/mL (≈ 39.5 µM). The molecule also had an MIC in the experiment with Streptococcus pneumoniae [7] of 0.125 µg/mL (≈ 0.154 µM).
As for `CC[C@H]1OC(=O)[C@H](C)[C@@H](OC(=O)NCCc2ccc(O)cc2)[C@H](C)[C@@H](O[C@@H]2O[C@H](C)C[C@H](N(C)C)[C@H]2O)[C@](C)(OC)C[C@@H](C)C(=O)[C@@H](C)[C@@H](OC)[C@]1(C)O`, the MIC was 4 µg/mL (≈ 5.22 µM) in the experiment with Staphylococcus aureus [1]; 8 µg/mL (≈ 10.4 µM) in the experiment with Haemophilus influenzae [2]; 0.25 µg/mL (≈ 0.326 µM) with Streptococcus pneumoniae [3]; > 64 µg/mL in the experiment with Staphylococcus aureus [4]; 2 µg/mL (≈ 2.61 µM) with Staphylococcus aureus [5]; 8 µg/mL (≈ 10.4 µM) with Haemophilus influenzae [6]. The molecule also displayed an MIC in the experiment with Streptococcus pneumoniae [7] of 0.25 µg/mL (≈ 0.326 µM).
In the case of `CC[C@H]1OC(=O)[C@H](C)[C@@H](OC(=O)NCCc2ccc(F)cc2)[C@H](C)[C@@H](O[C@@H]2O[C@H](C)C[C@H](N(C)C)[C@H]2O)[C@](C)(OC)C[C@@H](C)C(=O)[C@@H](C)[C@@H](OC)[C@]1(C)O`, the MIC in the experiment with Staphylococcus aureus [1] was 2 µg/mL (≈ 2.6 µM); in the experiment with Haemophilus influenzae [2], 8 µg/mL (≈ 10.4 µM); in the experiment on Streptococcus pneumoniae [3], 0.125 µg/mL (≈ 0.163 µM); in the experiment with Staphylococcus aureus [4], 32 µg/mL (≈ 41.6 µM); against Staphylococcus aureus [5], 2 µg/mL (≈ 2.6 µM); in the experiment with Haemophilus influenzae [6] it was 8 µg/mL (≈ 10.4 µM). Further, the MIC with Streptococcus pneumoniae [7] is 0.125 µg/mL (≈ 0.163 µM).
Consider `CC[C@H]1OC(=O)[C@H](C)[C@@H](OC(=O)NCCc2ccccc2F)[C@H](C)[C@@H](O[C@@H]2O[C@H](C)C[C@H](N(C)C)[C@H]2O)[C@](C)(OC)C[C@@H](C)C(=O)[C@@H](C)[C@@H](OC)[C@]1(C)O`, for which the MIC came to 8 µg/mL (≈ 10.4 µM) against Staphylococcus aureus [1]; 16 µg/mL (≈ 20.8 µM) in the experiment on Haemophilus influenzae [2]; 0.125 µg/mL (≈ 0.163 µM) with Streptococcus pneumoniae [3]; 64 µg/mL (≈ 83.2 µM) in the experiment with Staphylococcus aureus [4]; 16 µg/mL (≈ 20.8 µM) in the experiment with Staphylococcus aureus [5]; 16 µg/mL (≈ 20.8 µM) against Haemophilus influenzae [6]. The molecule further showed an MIC in the experiment with Streptococcus pneumoniae [7] of 0.125 µg/mL (≈ 0.163 µM).
Turning to `CC[C@H]1OC(=O)[C@H](C)[C@@H](OC(=O)NCCc2ccccc2Cl)[C@H](C)[C@@H](O[C@@H]2O[C@H](C)C[C@H](N(C)C)[C@H]2O)[C@](C)(OC)C[C@@H](C)C(=O)[C@@H](C)[C@@H](OC)[C@]1(C)O`, the MIC against Staphylococcus aureus [1] was 4 µg/mL (≈ 5.09 µM); in the experiment on Haemophilus influenzae [2] it was 8 µg/mL (≈ 10.2 µM); against Streptococcus pneumoniae [3], 0.125 µg/mL (≈ 0.159 µM); in the experiment on Staphylococcus aureus [4] it was > 64 µg/mL; in the experiment with Staphylococcus aureus [5], 1 µg/mL (≈ 1.27 µM); in the experiment on Haemophilus influenzae [6] it was 16 µg/mL (≈ 20.4 µM). The MIC in the experiment with Streptococcus pneumoniae [7] is 0.125 µg/mL (≈ 0.159 µM).
Turning to `CC[C@H]1OC(=O)[C@H](C)[C@@H](OC(=O)NCCc2ccccc2Br)[C@H](C)[C@@H](O[C@@H]2O[C@H](C)C[C@H](N(C)C)[C@H]2O)[C@](C)(OC)C[C@@H](C)C(=O)[C@@H](C)[C@@H](OC)[C@]1(C)O`, the MIC with Staphylococcus aureus [1] was determined as 4 µg/mL (≈ 4.82 µM); against Haemophilus influenzae [2], 8 µg/mL (≈ 9.64 µM); with Streptococcus pneumoniae [3], 8 µg/mL (≈ 9.64 µM); in the experiment with Staphylococcus aureus [4] it was 64 µg/mL (≈ 77.1 µM); against Staphylococcus aureus [5], 4 µg/mL (≈ 4.82 µM); in the experiment on Haemophilus influenzae [6] it was 4 µg/mL (≈ 4.82 µM). Further, in the experiment on Streptococcus pneumoniae [7], the MIC is 0.125 µg/mL (≈ 0.151 µM).
As for `CC[C@H]1OC(=O)[C@H](C)[C@@H](O[C@H]2C[C@@](C)(OC)[C@@H](O)[C@H](C)O2)[C@H](C)[C@@H](O[C@@H]2O[C@H](C)C[C@H](N(C)C)[C@H]2O)[C@](C)(O)C[C@@H](C)CN(C)[C@H](C)[C@@H](O)[C@]1(C)O` [AZITHROMYCIN], the MIC is 0.5 µg/mL (≈ 0.668 µM) with Staphylococcus aureus [1]; 4 µg/mL (≈ 5.34 µM) with Haemophilus influenzae [2]; 4 µg/mL (≈ 5.34 µM) with Streptococcus pneumoniae [3]; > 64 µg/mL against Staphylococcus aureus [4]; 8 µg/mL (≈ 10.7 µM) in the experiment on Staphylococcus aureus [5]; 4 µg/mL (≈ 5.34 µM) in the experiment on Haemophilus influenzae [6]. The molecule further returned an MIC with Streptococcus pneumoniae [7] of 0.5 µg/mL (≈ 0.668 µM).
